In BindingDB's records for doi:10.1210/en.2002-221074 (National Institute of Diabetes and Digestive and Kidney …, 2003):

Tests used:
[1] = molecular target: T1, Thyrotropin-releasing hormone receptor (Xenopus laevis, UniProt Q9DDR1)
T1 sequence (Q9DDR1 whole entry): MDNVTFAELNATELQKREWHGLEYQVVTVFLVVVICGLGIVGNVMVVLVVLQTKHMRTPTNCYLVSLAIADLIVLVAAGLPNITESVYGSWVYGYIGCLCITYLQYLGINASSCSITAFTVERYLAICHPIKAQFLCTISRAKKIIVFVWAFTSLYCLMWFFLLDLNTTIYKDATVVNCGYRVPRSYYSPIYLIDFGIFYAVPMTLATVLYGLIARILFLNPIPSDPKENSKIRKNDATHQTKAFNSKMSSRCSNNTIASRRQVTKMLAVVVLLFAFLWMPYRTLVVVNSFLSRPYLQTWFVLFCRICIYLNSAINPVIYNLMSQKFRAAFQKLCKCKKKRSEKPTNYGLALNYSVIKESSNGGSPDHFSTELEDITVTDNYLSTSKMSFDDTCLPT

[2] = molecular target: T2, Pro-thyrotropin-releasing hormone-B (Xenopus sp., UniProt Q00643)
T2 sequence (Q00643 whole entry): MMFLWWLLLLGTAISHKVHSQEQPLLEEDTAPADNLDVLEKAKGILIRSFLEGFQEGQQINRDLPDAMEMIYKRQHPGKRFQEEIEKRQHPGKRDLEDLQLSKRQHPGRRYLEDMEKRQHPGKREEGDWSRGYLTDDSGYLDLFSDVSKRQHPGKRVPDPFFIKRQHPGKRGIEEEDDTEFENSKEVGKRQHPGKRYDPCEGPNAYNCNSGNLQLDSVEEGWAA

[3] = molecular target: T3, Thyrotropin-releasing hormone receptor (Mus musculus, UniProt P21761)
T3 sequence (P21761 whole entry): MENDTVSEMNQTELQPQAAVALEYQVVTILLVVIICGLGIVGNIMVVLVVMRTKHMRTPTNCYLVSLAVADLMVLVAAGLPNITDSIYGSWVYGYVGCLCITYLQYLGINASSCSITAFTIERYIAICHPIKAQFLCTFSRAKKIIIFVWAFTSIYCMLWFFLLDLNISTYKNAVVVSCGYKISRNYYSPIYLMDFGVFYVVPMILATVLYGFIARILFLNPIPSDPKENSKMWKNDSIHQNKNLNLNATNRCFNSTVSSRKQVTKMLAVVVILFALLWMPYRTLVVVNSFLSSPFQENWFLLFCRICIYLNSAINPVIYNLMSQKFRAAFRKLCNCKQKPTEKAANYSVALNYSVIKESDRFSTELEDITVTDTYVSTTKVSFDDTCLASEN

Row | Ki [1] [µM] | Ki [2] [µM] | Ki [3] [µM] | SMILES
1 | > 10 | > 10 | > 10 | NC(=O)C1CCCN1C(=O)C(Cc1cnc[nH]1)NC(=O)[C@@H]1CCC(=O)C1 (stereo not given in full) [Pyr3TRH]
2 | 3 | > 10 | – | NC(=O)C1CCCN1C(=O)C(Cc1cnc[nH]1)NC(=O)C1CCC(=O)C1 (stereo not given) [Desaza1TRH]
